Patent US9340590B2 (priority 2011, dated 2016)
Where two headings read alike, the source gives them in different places. Positions of bridges follow the written chain, without caps; N, C: chain ends. Residues, ends and D or L forms follow the SMILES beside them.

Legend:
Test in all cases: cell-based
hNav1.5 = hNav1.5 (Homo sapiens, UniProt Q14524)
hNav1.7 = hNav1.7 (Homo sapiens, UniProt Q15858); type: cell-based
hNav1.3 = hNav1.3 (Homo sapiens, UniProt Q9NY46); settings: IonWorks Quattro, read-out: IWQ Use Nav1.3
[1] = IonWorks Quattro, Use, read-out: IWQ Use Nav1.5
[2] = IonWorks Quattro, Use, read-out: IWQ Use Nav1.7

Sequence of hNav1.7 (Q15858 whole entry, looked up): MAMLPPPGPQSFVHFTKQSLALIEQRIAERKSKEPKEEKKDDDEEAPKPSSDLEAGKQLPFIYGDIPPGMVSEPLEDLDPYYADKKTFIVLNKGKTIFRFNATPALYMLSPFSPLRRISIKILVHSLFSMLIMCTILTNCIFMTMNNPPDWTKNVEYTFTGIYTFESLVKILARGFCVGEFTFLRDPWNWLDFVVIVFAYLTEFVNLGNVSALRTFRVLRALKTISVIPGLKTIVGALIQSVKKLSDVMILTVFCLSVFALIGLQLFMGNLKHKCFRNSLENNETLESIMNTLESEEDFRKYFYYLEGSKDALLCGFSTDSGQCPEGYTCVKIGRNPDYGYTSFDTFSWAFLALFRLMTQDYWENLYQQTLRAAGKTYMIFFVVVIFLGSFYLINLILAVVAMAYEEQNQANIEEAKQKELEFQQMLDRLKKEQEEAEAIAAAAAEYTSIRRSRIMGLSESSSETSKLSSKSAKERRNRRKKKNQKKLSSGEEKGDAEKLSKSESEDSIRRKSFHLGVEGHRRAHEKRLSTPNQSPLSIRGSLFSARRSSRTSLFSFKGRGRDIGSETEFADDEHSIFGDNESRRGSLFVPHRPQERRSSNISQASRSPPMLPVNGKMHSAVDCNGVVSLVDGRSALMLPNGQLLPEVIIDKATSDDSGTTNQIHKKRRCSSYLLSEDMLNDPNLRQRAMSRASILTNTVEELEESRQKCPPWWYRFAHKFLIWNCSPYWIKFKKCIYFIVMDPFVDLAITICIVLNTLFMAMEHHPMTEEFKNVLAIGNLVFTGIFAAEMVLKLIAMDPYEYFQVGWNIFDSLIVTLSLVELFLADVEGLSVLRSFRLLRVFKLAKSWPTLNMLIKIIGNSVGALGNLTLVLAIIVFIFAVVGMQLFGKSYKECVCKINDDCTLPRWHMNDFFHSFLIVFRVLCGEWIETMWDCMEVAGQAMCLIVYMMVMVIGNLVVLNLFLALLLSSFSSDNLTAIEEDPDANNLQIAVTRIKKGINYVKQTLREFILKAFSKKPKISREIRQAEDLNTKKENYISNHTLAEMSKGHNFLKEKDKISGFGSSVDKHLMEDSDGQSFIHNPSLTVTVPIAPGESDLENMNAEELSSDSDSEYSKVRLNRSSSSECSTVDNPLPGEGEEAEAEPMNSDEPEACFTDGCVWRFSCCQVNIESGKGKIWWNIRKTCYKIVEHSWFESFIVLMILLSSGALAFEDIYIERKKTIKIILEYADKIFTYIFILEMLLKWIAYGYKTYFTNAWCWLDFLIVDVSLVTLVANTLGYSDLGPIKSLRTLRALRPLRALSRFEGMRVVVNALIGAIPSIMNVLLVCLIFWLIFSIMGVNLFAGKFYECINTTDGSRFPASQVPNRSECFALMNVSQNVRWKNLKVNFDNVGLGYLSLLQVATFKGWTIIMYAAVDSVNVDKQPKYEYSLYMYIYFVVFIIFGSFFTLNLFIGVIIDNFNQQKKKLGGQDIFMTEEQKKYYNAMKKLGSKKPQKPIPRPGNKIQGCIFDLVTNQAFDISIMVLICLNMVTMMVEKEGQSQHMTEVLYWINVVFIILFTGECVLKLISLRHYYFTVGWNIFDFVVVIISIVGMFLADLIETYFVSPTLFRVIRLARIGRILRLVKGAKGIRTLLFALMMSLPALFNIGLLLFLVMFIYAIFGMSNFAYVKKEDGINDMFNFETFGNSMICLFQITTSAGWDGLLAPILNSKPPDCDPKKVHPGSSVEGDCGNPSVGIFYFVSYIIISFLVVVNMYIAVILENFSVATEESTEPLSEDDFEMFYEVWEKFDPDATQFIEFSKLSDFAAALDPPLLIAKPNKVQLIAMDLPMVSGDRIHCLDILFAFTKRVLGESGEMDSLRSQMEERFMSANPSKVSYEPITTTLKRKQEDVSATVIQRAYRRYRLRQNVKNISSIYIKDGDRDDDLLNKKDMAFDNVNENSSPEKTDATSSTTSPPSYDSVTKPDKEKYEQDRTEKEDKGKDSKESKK
Sequence of hNav1.3 (Q9NY46 whole entry, looked up): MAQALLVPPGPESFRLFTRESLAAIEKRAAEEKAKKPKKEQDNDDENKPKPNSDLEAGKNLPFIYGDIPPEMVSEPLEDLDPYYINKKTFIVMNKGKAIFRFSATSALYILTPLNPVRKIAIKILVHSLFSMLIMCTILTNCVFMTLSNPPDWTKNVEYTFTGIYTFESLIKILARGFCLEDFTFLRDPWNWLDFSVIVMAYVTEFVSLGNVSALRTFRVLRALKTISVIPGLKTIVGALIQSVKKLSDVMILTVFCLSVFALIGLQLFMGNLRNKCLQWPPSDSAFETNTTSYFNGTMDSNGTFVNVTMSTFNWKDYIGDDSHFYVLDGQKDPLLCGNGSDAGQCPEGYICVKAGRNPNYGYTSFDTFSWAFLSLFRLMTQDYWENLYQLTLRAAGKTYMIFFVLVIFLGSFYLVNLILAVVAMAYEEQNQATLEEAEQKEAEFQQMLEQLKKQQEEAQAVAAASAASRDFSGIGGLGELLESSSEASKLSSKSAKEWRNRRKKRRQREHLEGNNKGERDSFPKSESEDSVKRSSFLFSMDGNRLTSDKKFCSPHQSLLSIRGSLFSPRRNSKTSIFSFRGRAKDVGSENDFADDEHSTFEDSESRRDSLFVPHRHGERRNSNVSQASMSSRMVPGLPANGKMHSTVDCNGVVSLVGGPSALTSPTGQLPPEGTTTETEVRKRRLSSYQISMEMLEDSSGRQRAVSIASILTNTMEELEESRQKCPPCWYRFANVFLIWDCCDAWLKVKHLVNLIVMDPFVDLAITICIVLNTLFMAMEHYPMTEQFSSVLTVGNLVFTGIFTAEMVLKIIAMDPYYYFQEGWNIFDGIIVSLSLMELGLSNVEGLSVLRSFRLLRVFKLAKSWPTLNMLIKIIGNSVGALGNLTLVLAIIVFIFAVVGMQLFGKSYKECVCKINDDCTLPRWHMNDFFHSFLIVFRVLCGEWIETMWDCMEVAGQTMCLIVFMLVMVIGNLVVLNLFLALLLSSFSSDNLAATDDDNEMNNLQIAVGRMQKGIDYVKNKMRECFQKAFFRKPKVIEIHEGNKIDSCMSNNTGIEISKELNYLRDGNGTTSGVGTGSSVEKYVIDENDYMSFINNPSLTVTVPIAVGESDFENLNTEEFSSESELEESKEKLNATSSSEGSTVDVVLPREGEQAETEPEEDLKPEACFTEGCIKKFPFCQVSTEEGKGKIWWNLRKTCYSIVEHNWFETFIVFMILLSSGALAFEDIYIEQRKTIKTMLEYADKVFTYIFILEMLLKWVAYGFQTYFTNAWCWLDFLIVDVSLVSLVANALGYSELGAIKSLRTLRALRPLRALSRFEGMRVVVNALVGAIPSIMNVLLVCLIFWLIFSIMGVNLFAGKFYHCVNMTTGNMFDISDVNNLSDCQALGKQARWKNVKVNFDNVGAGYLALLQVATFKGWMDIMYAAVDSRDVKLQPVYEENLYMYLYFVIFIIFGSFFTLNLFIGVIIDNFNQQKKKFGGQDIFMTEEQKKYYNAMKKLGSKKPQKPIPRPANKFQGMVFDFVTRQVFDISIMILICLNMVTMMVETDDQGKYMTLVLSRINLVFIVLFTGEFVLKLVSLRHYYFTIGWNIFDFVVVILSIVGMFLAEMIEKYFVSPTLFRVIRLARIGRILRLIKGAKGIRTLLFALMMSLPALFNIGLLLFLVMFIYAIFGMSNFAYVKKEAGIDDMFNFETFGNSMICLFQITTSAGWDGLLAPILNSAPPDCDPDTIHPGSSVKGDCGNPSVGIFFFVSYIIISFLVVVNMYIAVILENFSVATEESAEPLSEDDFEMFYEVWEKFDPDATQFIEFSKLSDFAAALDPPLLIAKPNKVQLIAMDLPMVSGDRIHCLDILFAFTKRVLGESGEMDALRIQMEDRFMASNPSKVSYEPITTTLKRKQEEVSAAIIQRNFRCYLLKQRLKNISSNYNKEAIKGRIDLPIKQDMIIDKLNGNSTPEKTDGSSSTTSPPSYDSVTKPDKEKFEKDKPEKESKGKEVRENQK

SMILES: CC[C@H](C)[C@@H]1NC(=O)[C@@H]2CSSC[C@@H]3NC(=O)[C@H](Cc4c[nH]c5ccccc45)NC(=O)[C@H](CC(C)C)NC(=O)[C@H](CC(N)=O)NC(=O)[C@@H]4CCCN4C(=O)[C@H](CCCNC(=N)N)NC(=O)[C@H](CSSC[C@H](NC(=O)[C@@H](N)CC(=O)O)C(=O)N[C@@H](CC(C)C)C(=O)NCC(=O)N[C@@H](Cc4ccccc4)C(=O)N[C@@H](CCSC)C(=O)N[C@@H](CCCNC(=N)N)C(=O)N[C@@H](CCCCN)C(=O)N2)NC(=O)[C@H](CSSC[C@@H](C(=O)N[C@@H](CCCCN)C(=O)N[C@@H](Cc2ccc(O)cc2)C(=O)N[C@H](C(=O)N[C@@H](Cc2ccccc2)C(N)=O)C(C)C)NC(=O)[C@H](Cc2c[nH]c4ccccc24)NC(=O)[C@H](CCCCN)NC(=O)[C@H](Cc2cnc[nH]2)NC(=O)[C@H]([C@@H](C)O)NC(=O)[C@H](CCCNC(=N)N)NC(=O)[C@H](CO)NC3=O)NC(=O)[C@H](CCCCN)NC(=O)[C@H](CC(=O)O)NC(=O)[C@H](CC(N)=O)NC(=O)[C@H](CC(=O)O)NC(=O)[C@@H]2CCCN2C1=O [compound 177] (H-DCLGFMRKCIPDNDKCCRPNLWCSRTHKWCKYVF-NH2; disulfide 2-17, 9-23, 16-30)
- IC50 (hNav1.5; IWQ Use Nav1.5 (μM)): 8.02 µM
- IC50 (hNav1.7): 0.03 µM
- IC50 (hNav1.3; Use): 0.06 µM

SMILES: CC[C@H](C)[C@@H]1NC(=O)[C@@H]2CSSC[C@@H]3NC(=O)[C@H](C(C)C)NC(=O)[C@H](CC(C)C)NC(=O)[C@H](CC(N)=O)NC(=O)[C@@H]4CCCN4C(=O)[C@H](CCCNC(=N)N)NC(=O)[C@H](CSSC[C@H](NC(=O)[C@@H](N)CC(=O)O)C(=O)N[C@@H](CC(C)C)C(=O)NCC(=O)N[C@@H](Cc4ccccc4)C(=O)N[C@@H](CCSC)C(=O)N[C@@H](CCCNC(=N)N)C(=O)N[C@@H](CCCCN)C(=O)N2)NC(=O)[C@H](CSSC[C@@H](C(=O)N[C@@H](CCCCN)C(=O)N[C@@H](Cc2ccc(O)cc2)C(=O)N[C@H](C(=O)N[C@@H](Cc2ccccc2)C(N)=O)C(C)C)NC(=O)[C@H](Cc2c[nH]c4ccccc24)NC(=O)[C@H](CCCCN)NC(=O)[C@H](Cc2cnc[nH]2)NC(=O)[C@H](Cc2c[nH]c4ccccc24)NC(=O)[C@H](CCCNC(=N)N)NC(=O)[C@H](CO)NC3=O)NC(=O)[C@H](CCCCN)NC(=O)[C@H](CC(=O)O)NC(=O)[C@H](CC(N)=O)NC(=O)[C@H](CC(=O)O)NC(=O)[C@@H]2CCCN2C1=O [compound 178] (H-DCLGFMRKCIPDNDKCCRPNLVCSRWHKWCKYVF-NH2; disulfide 2-17, 9-23, 16-30)
- IC50 (hNav1.5; Table 22, IonWorks Quattro, use, […], read-out: IWQ Use Nav1.5): 5.84 µM
- IC50 (hNav1.7; Table 22, IonWorks Quattro, use, […], read-out: IWQ Use Nav1.7): 0.03 µM
- IC50 (hNav1.3; Table 22, use, […]): 0.02 µM

SMILES: CC[C@H](C)[C@@H]1NC(=O)[C@@H]2CSSC[C@@H]3NC(=O)[C@H](C(C)C)NC(=O)[C@H](CC(C)C)NC(=O)[C@H](CC(N)=O)NC(=O)[C@@H]4CCCN4C(=O)[C@H](CCCNC(=N)N)NC(=O)[C@H](CSSC[C@H](NC(=O)[C@@H](N)CC(=O)O)C(=O)N[C@@H](CC(C)C)C(=O)NCC(=O)N[C@@H](Cc4ccccc4)C(=O)N[C@@H](CCSC)C(=O)N[C@@H](CCCNC(=N)N)C(=O)N[C@@H](CCCCN)C(=O)N2)NC(=O)[C@H](CSSC[C@@H](C(=O)N[C@@H](Cc2c[nH]c4ccccc24)C(=O)N[C@@H](Cc2ccc(O)cc2)C(=O)N[C@H](C(=O)N[C@@H](Cc2ccccc2)C(N)=O)C(C)C)NC(=O)[C@H](Cc2c[nH]c4ccccc24)NC(=O)[C@H](CCCCN)NC(=O)[C@H](Cc2c[nH]cn2)NC(=O)[C@H]([C@@H](C)O)NC(=O)[C@H](CCCNC(=N)N)NC(=O)[C@H](CO)NC3=O)NC(=O)[C@H](CCCCN)NC(=O)[C@H](CC(=O)O)NC(=O)[C@H](CC(N)=O)NC(=O)[C@H](CC(=O)O)NC(=O)[C@@H]2CCCN2C1=O [compound 179] (H-DCLGFMRKCIPDNDKCCRPNLVCSRTHKWCWYVF-NH2; disulfide 2-17, 9-23, 16-30)
- IC50 (hNav1.5; Table 25, IonWorks Quattro, use, […], read-out: IWQ Use Nav1.5): 10.8 µM
- IC50 (hNav1.7; Table 25, IonWorks Quattro, use, […], read-out: IWQ Use Nav1.7): 23.6 µM
- IC50 (hNav1.3; Table 25, use, […]): 10.2 µM

SMILES: CC[C@H](C)[C@@H]1NC(=O)[C@@H]2CSSC[C@@H]3NC(=O)[C@H](C(C)C)NC(=O)[C@H](CC(C)C)NC(=O)[C@H](CC(N)=O)NC(=O)[C@@H]4CCCN4C(=O)[C@H](CCCNC(=N)N)NC(=O)[C@H](CSSC[C@H](NC(=O)[C@@H](N)CC(=O)O)C(=O)N[C@@H](CC(C)C)C(=O)NCC(=O)N[C@@H](Cc4ccccc4)C(=O)N[C@@H](CCSC)C(=O)N[C@@H](CCCNC(=N)N)C(=O)N[C@@H](CCCCN)C(=O)N2)NC(=O)[C@H](CSSC[C@@H](C(=O)N[C@@H](CCCCN)C(=O)N[C@@H](Cc2ccc(O)cc2)C(=O)N[C@@H](Cc2c[nH]c4ccccc24)C(=O)N[C@@H](Cc2ccccc2)C(N)=O)NC(=O)[C@H](Cc2c[nH]c4ccccc24)NC(=O)[C@H](CCCCN)NC(=O)[C@H](Cc2c[nH]cn2)NC(=O)[C@H]([C@@H](C)O)NC(=O)[C@H](CCCNC(=N)N)NC(=O)[C@H](CO)NC3=O)NC(=O)[C@H](CCCCN)NC(=O)[C@H](CC(=O)O)NC(=O)[C@H](CC(N)=O)NC(=O)[C@H](CC(=O)O)NC(=O)[C@@H]2CCCN2C1=O [compound 180] (H-DCLGFMRKCIPDNDKCCRPNLVCSRTHKWCKYWF-NH2; disulfide 2-17, 9-23, 16-30)
- IC50 (hNav1.5; Table 26, IonWorks Quattro, use, […], read-out: IWQ Use Nav1.5): 9.06 µM
- IC50 (hNav1.7; Table 26, IonWorks Quattro, use, […], read-out: IWQ Use Nav1.7): 0.05 µM
- IC50 (hNav1.3; Table 26, use, […]): 0.009 µM

SMILES: CC[C@H](C)[C@@H]1NC(=O)[C@@H]2CSSC[C@@H]3NC(=O)[C@H](C(C)C)NC(=O)[C@H](CC(C)C)NC(=O)[C@H](CC(N)=O)NC(=O)[C@H](CO)NC(=O)[C@H](CCCNC(=N)N)NC(=O)[C@H](CSSC[C@H](NC(=O)[C@@H](N)CC(=O)O)C(=O)N[C@@H](CC(C)C)C(=O)NCC(=O)N[C@@H](Cc4ccccc4)C(=O)N[C@@H](CCSC)C(=O)N[C@@H](CCCNC(=N)N)C(=O)N[C@@H](CCCCN)C(=O)N2)NC(=O)[C@H](CSSC[C@@H](C(=O)N[C@@H](CCCCN)C(=O)N[C@@H](Cc2ccc(O)cc2)C(=O)N[C@H](C(=O)N[C@@H](Cc2ccccc2)C(N)=O)C(C)C)NC(=O)[C@H](Cc2c[nH]c4ccccc24)NC(=O)[C@H](CCCCN)NC(=O)[C@H](Cc2c[nH]cn2)NC(=O)[C@H]([C@@H](C)O)NC(=O)[C@H](CCCNC(=N)N)NC(=O)[C@H](CO)NC3=O)NC(=O)[C@H](CCCCN)NC(=O)[C@H](CC(=O)O)NC(=O)[C@H](CC(N)=O)NC(=O)[C@H](CC(=O)O)NC(=O)[C@@H]2CCCN2C1=O [compound 181] (H-DCLGFMRKCIPDNDKCCRSNLVCSRTHKWCKYVF-NH2; disulfide 2-17, 9-23, 16-30)
- IC50 (hNav1.5; [1]): 11.4 µM
- IC50 (hNav1.7; [2]): 0.088 µM
- IC50 (hNav1.3; Use): 0.031 µM

SMILES: CC[C@H](C)[C@@H]1NC(=O)[C@@H]2CSSC[C@@H]3NC(=O)[C@H](C(C)C)NC(=O)[C@H](CC(C)C)NC(=O)[C@H](CC(N)=O)NC(=O)[C@@H]4CCCN4C(=O)[C@H](CCCNC(=N)N)NC(=O)[C@H](CSSC[C@H](NC(=O)[C@@H](N)CC(=O)O)C(=O)N[C@@H](CC(C)C)C(=O)NCC(=O)N[C@@H](Cc4ccccc4)C(=O)N[C@@H](CCSC)C(=O)N[C@@H](CCCNC(=N)N)C(=O)N[C@@H](CCCCN)C(=O)N2)NC(=O)[C@H](CSSC[C@@H](C(=O)N[C@@H](CCCCN)C(=O)N[C@@H](Cc2ccc(O)cc2)C(=O)N[C@H](C(=O)N[C@@H](Cc2ccccc2)C(N)=O)C(C)C)NC(=O)[C@H](Cc2c[nH]c4ccccc24)NC(=O)[C@H](CCCCN)NC(=O)[C@H](Cc2c[nH]cn2)NC(=O)[C@H]([C@@H](C)O)NC(=O)[C@H](CCCNC(=N)N)NC(=O)[C@H](CO)NC3=O)NC(=O)[C@H](CCCCN)NC(=O)[C@H](CC(=O)O)NC(=O)[C@H](CC(N)=O)NC(=O)[C@H](CC(C)C)NC(=O)[C@@H]2CCCN2C1=O [compound 193] (H-DCLGFMRKCIPLNDKCCRPNLVCSRTHKWCKYVF-NH2; disulfide 2-17, 9-23, 16-30)
- IC50 (hNav1.5; [1]): 6.83 µM
- IC50 (hNav1.7; [2]): 0.08 µM
- IC50 (hNav1.3; Use): 0.071 µM

SMILES: CC[C@H](C)[C@@H]1NC(=O)[C@@H]2CSSC[C@@H]3NC(=O)[C@H](C(C)C)NC(=O)[C@H](CC(C)C)NC(=O)[C@H](CC(N)=O)NC(=O)[C@@H]4CCCN4C(=O)[C@H](CCCNC(=N)N)NC(=O)[C@H](CSSC[C@H](NC(=O)[C@@H](N)CC(=O)O)C(=O)N[C@@H](CC(C)C)C(=O)NCC(=O)N[C@@H](Cc4ccccc4)C(=O)N[C@@H](CCSC)C(=O)N[C@@H](CCCNC(=N)N)C(=O)N[C@@H](CCCCN)C(=O)N2)NC(=O)[C@H](CSSC[C@@H](C(=O)N[C@@H](CCCCN)C(=O)N[C@@H](Cc2ccc(O)cc2)C(=O)N[C@H](C(=O)N[C@@H](Cc2ccccc2)C(N)=O)C(C)C)NC(=O)[C@H](Cc2c[nH]c4ccccc24)NC(=O)[C@H](CCCCN)NC(=O)[C@H](Cc2c[nH]cn2)NC(=O)[C@H]([C@@H](C)O)NC(=O)[C@H](CCCNC(=N)N)NC(=O)[C@H](CO)NC3=O)NC(=O)[C@H](CCCCN)NC(=O)[C@H](CC(=O)O)NC(=O)[C@H](CC(N)=O)NC(=O)CNC(=O)[C@@H]2CCCN2C1=O [compound 194] (H-DCLGFMRKCIPGNDKCCRPNLVCSRTHKWCKYVF-NH2; disulfide 2-17, 9-23, 16-30)
- IC50 (hNav1.5; [1]): 8.76 µM
- IC50 (hNav1.7; [2]): 0.075 µM
- IC50 (hNav1.3; Use): 0.047 µM
